ChEMBL document CHEMBL1201862, “PubChem BioAssay data set” (2004)
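Grown in 96-well plates, cells were treated for 48 hours with each compound at five concentrations. Insufficient inhibition: endpoint recorded as highest concentration tested. At the GI50, growth is halved.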 Active and inactive are the calls of the source. No stated cut-off is given here; in the data, active = GI50 up to about 1.1 µM and inactive = higher.

Legend:
Experiment in all cases: NCI-60 cell line screen, 48 h
[1] = system: MDA-N
[2] = system: KM12
[3] = system: NCI-H23
[4] = system: SK-MEL-28
[5] = system: A498
[6] = system: T47D
[7] = system: MDA-MB-435
[8] = system: SF-268
[9] = system: IGROV-1
[10] = system: SK-OV-3
[11] = system: COLO 205
[12] = system: K562
[13] = system: SN12C
[14] = system: DU-145
[15] = system: SF-295
[16] = system: SR
[17] = system: CAKI-1
[18] = system: NCI-H522
[19] = system: HCT-116
[20] = system: LOX IMVI

Measured: GI50

Oc1c(C2=NNC(c3ccc(Cl)cc3Cl)C2)ccc2ccccc12 (stereo unspecified)
inactive: [1] 19.5 µM | [2] 26.2 µM | [3] 68.1 µM | [4] 45.7 µM | [5] 71.4 µM | [6] 62.2 µM | [7] 22.8 µM | [8] 33 µM | [9] 14.4 µM | [10] 46.3 µM | [11] 32 µM | [12] 23.1 µM | [13] 32.6 µM | [14] 64.9 µM | [15] 28.3 µM | [16] 8.38 µM | [17] 66.5 µM | [18] 24 µM | [19] 33.6 µM

CC(NC(=O)C(OC(=O)C(C)NC(=O)OC(C)(C)C)C(C)C)C(=O)OC(C(=O)O)C(C)C (stereo unspecified)
inactive: [1] > 100 µM | [2] > 100 µM | [4] > 100 µM | [6] > 100 µM | [7] > 100 µM | [8] > 100 µM | [9] > 100 µM | [10] > 100 µM | [11] > 100 µM | [12] > 100 µM | [13] > 100 µM | [14] > 100 µM | [15] > 100 µM | [16] > 100 µM | [17] > 100 µM | [18] > 100 µM

NS(=O)(=O)c1ccc(NCc2cnc3ccccc3c2)cc1
inactive: [1] > 100 µM | [2] > 100 µM | [3] 60 µM | [4] > 100 µM | [5] > 100 µM | [6] > 100 µM | [7] > 100 µM | [8] 39.8 µM | [9] 49.4 µM | [10] > 100 µM | [11] > 100 µM | [12] > 100 µM | [13] > 100 µM | [14] > 100 µM | [15] > 100 µM | [16] > 100 µM | [17] > 100 µM | [18] 28.1 µM | [19] > 100 µM

CC(C(=O)O)c1ccc(-c2ccccc2)c(F)c1 (stereo unspecified) [FLURBIPROFEN]
inactive: [1] > 100 µM | [2] > 100 µM | [4] > 100 µM | [6] > 100 µM | [20] > 100 µM | [7] > 100 µM | [8] > 100 µM | [9] > 100 µM | [10] > 100 µM | [11] > 100 µM | [12] > 100 µM | [13] > 100 µM | [14] > 100 µM | [15] > 100 µM | [16] > 100 µM | [17] > 100 µM | [18] > 100 µM | [19] > 100 µM

O=c1[nH]nc(Cc2ccc(Cl)cc2)n1/N=C/c1cccs1
inactive: [1] > 100 µM | [2] > 100 µM | [3] 24.9 µM | [4] > 100 µM | [5] 29.1 µM | [6] > 100 µM | [7] > 100 µM | [8] 15.9 µM | [9] 23.1 µM | [10] 43.9 µM | [11] > 100 µM | [12] > 100 µM | [13] 29.2 µM | [14] 99.8 µM | [15] 18.9 µM | [16] > 100 µM | [17] 36.5 µM | [18] 23.7 µM | [19] 30.8 µM

O=[N+]([O-])c1cccc(/N=N/c2c(O)c(S(=O)(=O)O)cc3cc(S(=O)(=O)O)ccc23)c1
inactive: [1] > 100 µM | [2] > 100 µM | [3] > 100 µM | [4] > 100 µM | [5] > 100 µM | [6] > 100 µM | [7] > 100 µM | [8] > 100 µM | [9] > 100 µM | [10] > 100 µM | [11] > 100 µM | [12] > 100 µM | [13] > 100 µM | [14] > 100 µM | [15] > 100 µM | [16] > 100 µM | [17] > 100 µM | [18] > 100 µM | [19] > 100 µM

CCCCCCCCCCCCN1[C@H]2CCC[C@H]2C(O)[C@@H]2CCC[C@@H]21 (stereo partly specified)
inactive: [1] > 100 µM | [2] 68.2 µM | [3] 42.6 µM | [4] > 100 µM | [5] > 100 µM | [6] 29.2 µM | [20] 81.8 µM | [7] > 100 µM | [8] > 100 µM | [9] 98.9 µM | [10] > 100 µM | [11] > 100 µM | [12] > 100 µM | [13] 52.8 µM | [14] > 100 µM | [16] 41 µM | [17] > 100 µM | [19] 53.8 µM

N#CCCN(CCC#N)c1ccc(/C=C2\N=C(c3ccccc3)N(c3ccc(F)cc3)C2=O)cc1
inactive: [1] > 100 µM | [2] > 100 µM | [4] > 100 µM | [5] > 100 µM | [6] > 100 µM | [20] > 100 µM | [7] > 100 µM | [8] > 100 µM | [9] > 100 µM | [10] > 100 µM | [11] > 100 µM | [12] > 100 µM | [13] > 100 µM | [14] > 100 µM | [15] > 100 µM | [16] > 100 µM | [17] > 100 µM | [19] > 100 µM

N#C[C@H]1Nc2ccccc2[C@@H](O)C1O (stereo partly specified)
inactive: [1] > 100 µM | [2] > 100 µM | [3] > 100 µM | [4] > 100 µM | [6] > 100 µM | [20] > 100 µM | [7] > 100 µM | [8] > 100 µM | [9] > 100 µM | [10] > 100 µM | [11] > 100 µM | [12] > 100 µM | [13] > 100 µM | [14] > 100 µM | [15] > 100 µM | [16] > 100 µM | [17] > 100 µM | [19] > 100 µM

COC(=O)C(=CNC(N)=O)C(=O)OC
inactive: [1] > 100 µM | [2] > 100 µM | [3] > 100 µM | [4] > 100 µM | [6] > 100 µM | [20] > 100 µM | [7] > 100 µM | [8] > 100 µM | [9] > 100 µM | [11] > 100 µM | [12] > 100 µM | [13] > 100 µM | [14] > 100 µM | [15] > 100 µM | [16] > 100 µM | [17] > 100 µM | [18] > 100 µM | [19] > 100 µM

O=C1N/C(=N/N=C/C(O)C(O)C(O)C(O)CO)N/C1=C\c1cccs1 (stereo unspecified)
inactive: [1] > 100 µM | [2] > 100 µM | [3] > 100 µM | [4] > 100 µM | [5] 73.1 µM | [6] 93.8 µM | [20] > 100 µM | [7] > 100 µM | [8] > 100 µM | [9] > 100 µM | [10] > 100 µM | [11] > 100 µM | [12] > 100 µM | [13] > 100 µM | [14] > 100 µM | [15] > 100 µM | [17] > 100 µM | [18] 88.5 µM | [19] > 100 µM
